{"source": "patent US20120094311A1", "about": "“GENE AND PROTEIN EXPRESSION PROFILES ASSOCIATED WITH THE THERAPEUTIC EFFICACY OF EGFR-TK INHIBITORS” (priority 2007, published 2012)", "system": "tumor cells derived from NSCLC tumors of patients shown to be responsive to gefitinib", "assay": "Xenograft array: SCID mice bearing patient-derived NSCLC tumors treated with IRESSA", "assay_type": "in vivo", "conditions": "SCID mice injected with patient-derived NSCLC tumor cells; injected with 200 mg/kg of IRESSA", "description": "Positive expression was also confirmed using a Xenograft array. To make this array, SCID mice were injected with tumor cells derived from NSCLC tumors of patients shown to be responsive to gefitinib (IRESSA®), and tumors were allowed to grow. The mice then were injected with 200 mg/kg of IRESSA®, and the mice were monitored to observe responsiveness to the drug.", "data": [{"smiles": "COc1cc2ncnc(Nc3ccc(F)c(Cl)c3)c2cc1OCCCN1CCOCC1", "note": "[IRESSA, gefitinib]", "values": [{"measurement": "tumors formed in the SCID mice after treatment", "value": "reduced or eliminated"}]}]}
